Results as given in patent publication EP4428121A1, “MODULATORS OF SORTILIN ACTIVITY” (Vesper Bio Aps, priority 2023, dated 2024).
pIC50: −log10 of the molar value.

What was measured:
[1] = molecular target: T1, Human (6-His)Sortilin (Homo sapiens, UniProt Q99523); assay: Human Sortilin GCI (Grating-Coupled Interferometry) binding assay; settings: Creoptix WAVE-RAPID, single concentration (usually 1 µM, 10 µM or 100 µM), immobilised Human (6-His)Sortilin, 1:1 kinetic binding model
T1 construct: purchased RnD Systems
T1 sequence (Q99523 78-755 limits assumed): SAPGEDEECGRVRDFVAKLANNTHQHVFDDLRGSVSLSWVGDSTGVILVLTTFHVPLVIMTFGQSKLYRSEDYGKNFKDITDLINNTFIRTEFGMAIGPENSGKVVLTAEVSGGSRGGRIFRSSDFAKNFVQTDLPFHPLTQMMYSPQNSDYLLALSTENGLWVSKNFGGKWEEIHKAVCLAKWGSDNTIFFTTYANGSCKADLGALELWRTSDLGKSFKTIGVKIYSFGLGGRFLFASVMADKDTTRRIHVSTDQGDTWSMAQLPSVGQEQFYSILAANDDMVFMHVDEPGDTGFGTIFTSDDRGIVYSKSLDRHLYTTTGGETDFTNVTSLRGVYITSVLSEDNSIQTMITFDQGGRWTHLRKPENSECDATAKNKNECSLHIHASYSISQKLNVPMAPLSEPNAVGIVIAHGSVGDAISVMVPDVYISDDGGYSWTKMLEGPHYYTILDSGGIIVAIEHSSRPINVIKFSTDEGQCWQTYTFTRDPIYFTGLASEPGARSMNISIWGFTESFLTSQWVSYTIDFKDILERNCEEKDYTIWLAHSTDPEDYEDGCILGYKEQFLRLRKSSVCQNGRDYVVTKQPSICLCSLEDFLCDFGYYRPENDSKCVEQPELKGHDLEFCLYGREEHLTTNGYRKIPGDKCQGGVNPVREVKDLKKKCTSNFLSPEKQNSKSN

[2] = molecular target: T2, h-Sortilin (Homo sapiens, UniProt Q99523); assay: Neurotensin scintillation proximity assay (SPA); settings: displacement of [3H]-neurotensin binding to h-Sortilin; 150 nM 6his-Sortilin, 5 nM [3H]-Neurotensin; average of at least 2 determinations
T2 sequence (Q99523 78-831): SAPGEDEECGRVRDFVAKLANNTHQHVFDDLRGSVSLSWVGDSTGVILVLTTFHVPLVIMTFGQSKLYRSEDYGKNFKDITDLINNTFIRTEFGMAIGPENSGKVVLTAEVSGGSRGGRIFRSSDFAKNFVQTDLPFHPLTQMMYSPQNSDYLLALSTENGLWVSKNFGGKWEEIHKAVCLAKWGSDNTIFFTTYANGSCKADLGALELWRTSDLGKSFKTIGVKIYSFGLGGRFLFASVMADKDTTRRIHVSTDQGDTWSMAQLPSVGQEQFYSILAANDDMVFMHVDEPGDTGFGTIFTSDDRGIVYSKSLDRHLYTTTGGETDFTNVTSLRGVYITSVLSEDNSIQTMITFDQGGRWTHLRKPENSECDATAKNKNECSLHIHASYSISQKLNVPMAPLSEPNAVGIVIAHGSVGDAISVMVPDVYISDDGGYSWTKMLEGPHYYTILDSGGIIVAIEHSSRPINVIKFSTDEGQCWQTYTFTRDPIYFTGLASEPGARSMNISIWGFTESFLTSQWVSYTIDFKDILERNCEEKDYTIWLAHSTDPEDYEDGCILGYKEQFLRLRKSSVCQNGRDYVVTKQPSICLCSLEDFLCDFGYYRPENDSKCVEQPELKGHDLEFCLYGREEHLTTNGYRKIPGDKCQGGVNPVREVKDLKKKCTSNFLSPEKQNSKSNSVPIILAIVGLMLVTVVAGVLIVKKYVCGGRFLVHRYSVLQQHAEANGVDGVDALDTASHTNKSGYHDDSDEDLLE
Procedure: NTS, which is a 13 amino acid neuropeptide, is a sortilin ligand.
Compound affinity was determined by measuring the displacement of [^3H]-neurotensin binding to h-Sortilin in SPA format. Total volume of 40 µl in 50 mM HEPES pH 7.4 assay buffer containing 100 mM NaCl, 2.0 mM CaCl2, 0.1% BSA and 0.1% Tween-20. Compound pre-incubation for 30 minutes at room temperature with 150 nM of 6his-Sortilin before 5 nM [3H]-Neurotensin and Ni chelate imaging beads (Perkin Elmer) were added, after 6 hours the plate was read on a ViewLux with 360 s exposure time. Dose-response evaluation of compounds was performed with 8 concentrations of drugs (covering 3 decades). IC50 values were calculated by nonlinear regression using the sigmoid concentration-response (variable slope) using CDD Vault software. All values reported are average of at least 2 determinations.

Structure (SMILES) | Kd [1] [nM] | pIC50 [2]
Cc1cncc(N[C@@H](CCC(C)(C)C)C(=O)O)n1 [Example 27, (S)-5,5-dimethyl-2-(6-methyl-2-pyrazinylamino)hexanoic acid] | 664 | 6.29
CC(C)(C)CC[C@H](Nc1cncnc1)C(=O)O [Example 6, (S)-5,5-dimethyl-2-(5-pyrimidinylamino)hexanoic acid] | 4050 | 5.91
CC(C)(C)CCC(Nc1ccccn1)c1nn[nH]n1 (racemic) [Example 68, N-2-pyridyl[4,4-dimethyl-1-(2H-tetraazol-5-yl)pentyl]amine] | 7570 | 5.00
CC(C)(C)CC[C@H](Nc1ncnc2ccccc12)C(=O)O [Example 8, (S)-5,5-dimethyl-2-(4-quinazolinylamino)hexanoic acid] | 116 | 6.49
Cc1cc(N[C@@H](CCC(C)(C)C)C(=O)O)nc(C)n1 [Example 25, (S)-2-(2,6-dimethyl-4-pyrimidinylamino)-5,5-dimethylhexanoic acid] | 499 | 5.81
CC(C)(C)CC[C@H](Nc1cccnc1)C(=O)O [Example 31, (S)-5,5-dimethyl-2-(3-pyridylamino)hexanoic acid] | 1710 | 5.74
CC(C)(C)CC[C@H](Nc1ncccn1)C(=O)O [Example 5, (S)-5,5-dimethyl-2-(2-pyrimidinylamino)hexanoic acid] | 13200 | 5.93
Cc1nccc(N[C@@H](CCC(C)(C)C)C(=O)O)n1 [Example 23, (S)-5,5-dimethyl-2-(2-methyl-4-pyrimidinylamino)hexanoic acid] | 108 | 5.88
CC(C)(C)CCC(Nc1cccnc1)c1nn[nH]n1 (racemic) [Example 69, N-3-pyridyl[4,4-dimethyl-1-(2H-tetraazol-5-yl)pentyl]amine] | 1800 | 5.00
Cc1cccc2c(N[C@@H](CCC(C)(C)C)C(=O)O)ncnc12 [Example 26, (S)-5,5-dimethyl-2-(8-methyl-4-quinazolinylamino)hexanoic acid] | 54.1 | 5.74
Cc1cc(N[C@@H](CCC(C)(C)C)C(=O)O)ncn1 [Example 24, (S)-5,5-dimethyl-2-(6-methyl-4-pyrimidinylamino)hexanoic acid] | 429 | 5.54
CC(C)(C)CC[C@H](Nc1ccccn1)C(=O)O [Example 2, (S)-5,5-dimethyl-2-(2-pyridylamino)hexanoic acid] | 2230 | 5.66
CC(C)(C)CC[C@H](Nc1ccncn1)C(=O)O [Example 7, (S)-5,5-dimethyl-2-(4-pyrimidinylamino)hexanoic acid] | 8280 | 5.95
CC(C)(C)CC[C@H](Nc1cncc(Oc2ccccc2)n1)C(=O)O [Example 28, (S)-5,5-dimethyl-2-(6-phenoxy-2-pyrazinylamino)hexanoic acid] | 525 | 6.17
CC(C)(C)CC[C@H](Nc1cnccn1)C(=O)O [Example 4, (S)-5,5-dimethyl-2-(2-pyrazinylamino)hexanoic acid] | 5570 | 5.97
